Literature values in patent publication US20130281390A1, “METHOD FOR TREATING DRY EYE” (priority 2010, published 2013).

Tested on: subjects with meibomian gland dysfunction
Details: daily topical administration to the ocular surface

SMILES: CC[C@H]1OC(=O)[C@H](C)[C@@H](O[C@H]2C[C@@](C)(OC)[C@@H](O)[C@H](C)O2)[C@H](C)[C@@H](O[C@@H]2O[C@H](C)C[C@H](N(C)C)[C@H]2O)[C@](C)(O)C[C@@H](C)CN(C)[C@H](C)[C@@H](O)[C@]1(C)O [azithromycin]
- physicochemical properties of the meibum: improved the physicochemical properties of the meibum towards that of normal subjects
